Assay results published in patent US5885987A, “Phenylene derivatives” (Kowa Co., Ltd., priority 1996, dated 1999).
Read-outs that look alike come from different tables or passages of the source.

Experiments:
H1 receptor = biological target: T1, H1 receptor (Cavia porcellus, UniProt P31389); assay: H1 receptor binding inhibition test ([^3 H]mepyramin, guinea pig cerebromembranous protein); settings: for Kd: read-out: H1 receptor, dissociation constant KD
T1 construct: guinea pig cerebromembranous protein; from tissue; host or cells: guinea pig cerebral (brain) membranes
Description: 1) H1 Receptor Binding Inhibition Test
An ice-cooled phosphate buffer was added to terminate the reaction, followed by immediate filtration through a Wattman CF/C filter. The filter was washed twice with 20 ml aliquots of the ice-cooled buffer. The radioactivity of the residue was measured by a liquid scintillation counter. From a measurement value obtained without the addition of the test compound and measurements values obtained upon addition of the test compound at various concentrations, the dose-response of the inhibitory action of the test compound was measured and the 50% inhibitory concentration (IC50) was determined. Using the Cheng-Prusoff formula, a dissociation constant was calculated from the IC50. In a binding assay, 10^-4 M R(-)dimethindene was used for the measurement of a nonspecific binding.

LTD4 receptor = biological target: T2, LTD4 receptor (Cavia porcellus, UniProt Q2NNR5); assay: LTD4 receptor binding inhibition test ([^3 H]leukotriene D4, guinea pig pulmomembranous protein); settings: for Kd: read-out: LTD4 receptor, dissociation constant KD; for inhibition at 10 µM: read-out: LTD4 receptor (%), inhibition rate
T2 construct: guinea pig pulmomembranous protein; from tissue; host or cells: guinea pig lung membranes
T2 sequence (Q2NNR5 1-340): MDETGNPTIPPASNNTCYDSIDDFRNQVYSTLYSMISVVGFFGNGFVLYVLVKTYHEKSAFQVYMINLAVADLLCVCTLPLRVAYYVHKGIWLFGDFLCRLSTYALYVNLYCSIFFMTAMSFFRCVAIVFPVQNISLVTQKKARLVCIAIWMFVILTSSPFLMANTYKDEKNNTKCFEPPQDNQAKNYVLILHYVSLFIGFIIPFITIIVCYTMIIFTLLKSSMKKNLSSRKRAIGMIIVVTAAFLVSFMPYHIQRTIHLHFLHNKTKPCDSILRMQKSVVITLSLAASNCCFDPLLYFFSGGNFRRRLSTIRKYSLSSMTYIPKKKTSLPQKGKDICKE
Description: 2) LTD4 Receptor Binding Inhibition Test
An ice-cooled tris hydrochloride/sodium chloride buffer (10 mM/100 mM, pH 7.5) was added to terminate the reaction, followed by immediate filtration through a Wattman CF/C filter. The filter was washed twice with 20 ml aliguots of the ice-cooled buffer. The radioactivity of the residue was measured by a liquid scintillation counter. […] In a binding assay, 2 μM leukotriene D4 was used for the measurement of a nonspecific binding.

[1] = 0.2 nM [^3 H]leukotriene D4, pH 7.5, 22° C., 30 minutes, calculated from IC50
[2] = 0.5 nM [^3 H]mepyramin, pH 7.5, 37° C., 30 minutes, calculated from IC50 with Cheng-Prusoff formula
[3] = a: 100 μM, read-out: H1 receptor (%), inhibition rate

T1 sequence (P31389 whole entry): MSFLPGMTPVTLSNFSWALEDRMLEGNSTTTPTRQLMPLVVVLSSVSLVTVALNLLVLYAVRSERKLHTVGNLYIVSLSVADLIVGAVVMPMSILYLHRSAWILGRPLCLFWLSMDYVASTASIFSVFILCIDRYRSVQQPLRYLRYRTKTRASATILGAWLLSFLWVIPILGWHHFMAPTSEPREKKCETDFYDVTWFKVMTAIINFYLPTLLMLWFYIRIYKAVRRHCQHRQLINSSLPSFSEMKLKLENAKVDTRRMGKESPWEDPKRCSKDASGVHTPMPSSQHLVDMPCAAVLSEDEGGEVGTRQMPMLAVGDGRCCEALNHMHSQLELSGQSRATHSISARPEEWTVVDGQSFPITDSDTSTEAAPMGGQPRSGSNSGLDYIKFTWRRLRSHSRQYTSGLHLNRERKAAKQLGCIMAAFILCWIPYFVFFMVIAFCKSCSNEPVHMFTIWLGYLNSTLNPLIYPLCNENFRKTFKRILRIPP

Row | Compound | inhibition at 100 µM (H1 receptor; [3]) [%] | Kd (LTD4 receptor) [nM] | other results
1 | 7-[3-(2-Quinolinylmethoxy)benzyloxy]-3,4-dihydro-2H-1,4-benzothiazin-3-one 1,1-dioxide [Example 77] | – | – | H1 receptor (%), inhibition rate (H1 receptor; a: 100 μM): 30%; Kd (LTD4 receptor; [1]): 129 nM
2 | 7-[3-(2-quinolinylmethoxy)benzyloxy]-2,3,4,5-tetrahydro-tetrazolo-[5,1-a][2]benzazepin [Example 87] | – | – | Kd (H1 receptor; [2]): 67200 nM; Kd (LTD4 receptor; [1]): 11.4 nM
3 | 7-[4-(2-quinolinylmethoxy)benzyloxy]-2,3,4,5-tetrahydro-tetrazolo-[5,1-a][2]benzazepin [Example 88] | – | – | Kd (H1 receptor; [2]): 31100 nM; LTD4 receptor (%), inhibition rate (LTD4 receptor; b: 10 μM): 30%
4 | CN(Cc1cccc(OCc2ccc3ccccc3n2)c1)c1ccc2c(c1)SCC(=O)N2 [96(a), 7-[N-methyl-N-{3-(2-quinolinylmethoxy)benzyl}amino]-3,4-dihydro-2H-1,4-benzothiazin-3-one] | – | – | inhibition at 10 µM (H1 receptor; b: 10 μM, read-out: H1 receptor (%), inhibition rate): 4%; inhibition at 10 µM (LTD4 receptor; b: 10 μM): 9%
5 | CCCCCCc1cc(OCc2cccc(OCc3ccc4ccccc4n3)c2)cc2c1C(C)(C)C(=O)N2 [Example 16, 3,3-Dimethyl-4-(n-hexyl)-6-[3-(2-quinolinylmethoxy)benzyloxy]-2,3-dihydro-1H-indol-2-one] | 48 | 2500 | –
6 | CC1(C)C(=O)Nc2ccc(OCc3ccc(OCc4ccc5ccccc5n4)cc3)cc21 [Example 18, 3,3-dimethyl-5-[4-(2-quinolinylmethoxy)benzyloxy]-2,3-dihydro-1H-indol-2-one] | – | 1100 | Kd (H1 receptor): 78700 nM
7 | Cc1ccc(OCc2ccc(OCc3ccc4ccccc4n3)cc2)c2c1NC(=O)CC2 [Example 21, 8-Methyl-5-[4-(2-quinolinylmethoxy)benzyloxy]-1,2,3,4-tetrahydroquinolin-2-one] | 28 | – | inhibition at 10 µM (LTD4 receptor; b: 10 μM): 33%
8 | O=C1CCc2cc(OCc3ccc(OCc4ccc5ccccc5n4)cc3)ccc2N1 [Example 22] | 45 | 1240 | –
9 | CC1(C)C(=O)Nc2cc(OCc3ccc(OCc4ccc5ccccc5n4)cc3)ccc21 [Example 28, 3,3-Dimethyl-6-[4-(2-quinolinylmethoxy)benzyloxy]-2,3-dihydro-1H-indol-2-one] | 30 | 1400 | –
10 | CCCCCCc1cc(OCc2ccc(OCc3ccc4ccccc4n3)cc2)cc2c1C(C)(C)C(=O)N2 [Example 29, 3,3-Dimethyl-4-(n-hexyl)-6-(4-(2-quinolinylmethoxy)benzyloxy]-2,3-dihydro-1H-indol-2-one] | 34 | 3100 | –
11 | O=C1CSc2cc(OCc3cccc(OCc4nc5ccccc5s4)c3)ccc2N1 [Example 40, 7-[3-(2-benzothiazolylmethoxy)benzyloxy)-3,4-dihydro-2H-1,4-benzothiazin-3-one] | 43 | 1390 | –
12 | O=C1CCc2ccc(OCc3cccc(OCc4nc5ccccc5s4)c3)cc2N1 [Example 41, 7-[3-(2-benzothiazolylmethoxy)benzyloxy]-1,2,3,4-tetrahydroquinolin-2-one] | – | – | Kd (H1 receptor): 128000 nM; inhibition at 10 µM (LTD4 receptor; b: 10 μM): 34%
13 | O=C1CSc2cc(NC(=O)c3ccc(OCc4ccc5ccccc5n4)cc3)ccc2N1 [Example 73] | – | – | inhibition at 10 µM (LTD4 receptor; b: 10 μM): 20%
14 | O=C1CS(=O)(=O)c2cc(OCc3cccc(OCc4ccc5ccccc5n4)c3)ccc2N1 [Example 74, 7-[3-(2-quinolinylmethoxy)benzyloxy]-3,4-dihydro-2H-1,4-benzothiazin-3-one1,1-dioxide] | – | 235000 | –

Further compounds by falling Kd (LTD4 receptor), results first:

Row | inhibition at 100 µM (H1 receptor; [3]) [%] | Kd (LTD4 receptor) [nM] | Compound | other results
15 | – | 703 | O=C1Cc2c(cccc2OCc2cccc(OCc3ccc4ccccc4n3)c2)N1 [Example 12, 4-[3-(2-Quinolinylmethoxy)benzyloxy)-2,3-dihydro-1H-indol-2-one] | H1 receptor (%), inhibition rate (H1 receptor; concentration not given): 45%
16 | 44 | 523 | Cc1ccc(OCc2cccc(OCc3ccc4ccccc4n3)c2)c2cc(C#N)c(=O)[nH]c12 [Example 3, 3-Cyano-8-methyl-5-[3-(2-quinolinylmethoxy)benzyloxy]-1,2-dihydroquinolin-2-one] | –
17 | 41 | 500 | O=C1CCc2ccc(OCc3ccc(OCc4ccc5ccccc5n4)cc3)cc2N1 [Example 23] | –
18 | – | 322 | O=C1CCc2cccc(OCc3cccc(OCc4ccc5ccccc5n4)c3)c2N1 [Example 8, 8-[3-(2-Quinolinylmethoxy)benzyloxy]-1,2,3,4-tetrahydroquinolin-2-one] | Kd (H1 receptor): 145000 nM
19 | 57 | 316 | Cc1ccc(OCc2cccc(OCc3ccc4ccccc4n3)c2)c2c1NC(=O)CC2 [Example 5, 8-Methyl-5-[3-(2-quinolinylmethoxy)benzyloxy]-1,2,3,4-tetrahydroquinolin-2-one] | –
20 | – | 304 | O=C1CCc2ccc(OCc3cccc(OCc4ccc5ccc(Cl)cc5n4)c3)cc2N1 [Example 31, 7-[3-(7-chloro-2-quinolinylmethoxy)benzyloxy]-1,2,3,4-tetrahydroquinolin-2-one] | Kd (H1 receptor): 19800 nM
21 | 47 | 303 | Cn1c(COc2ccc(COc3ccc4c(c3)SCC(=O)N4)cc2)nc2ccccc21 [Example 38, 7-(4-(N-methylbenzimidazol-2-yl-methoxy)benzyloxy]-3,4-dihydro-2H-1,4-benzothiazin-3-one] | –
22 | – | 301 | O=C1CCc2cccc(OCc3ccc(OCc4ccc5ccccc5n4)cc3)c2N1 [Example 24, 8-[4-(2-Quinolinylmethoxy)benzyloxy]-1,2,3,4-tetrahydroquinolin-2-one] | Kd (H1 receptor): 25800 nM
23 | 29 | 215 | CC1(C)C(=O)Nc2ccc(OCc3cccc(OCc4ccc5ccccc5n4)c3)cc21 [Example 14, 3,3'-Dimethyl-5-[3-(2-quinolinylmethoxy)benzyloxy]-2,3-dihydro-1H-indol-2-one] | –
24 | 46 | 209 | O=C1CCc2ccc(OCc3cccc(OCc4ccc5ccccc5n4)c3)cc2N1 [Example 7] | –
25 | 28 | 204 | Cc1ccc(OCc2cccc(OCc3nc4ccccc4n3C)c2)c2c1NC(=O)C2(C)C [Example 37, 4-[3-(N-methylbenzimidazol-2-yl-methoxy)benzyloxy)-3,3,7-trimethyl-2,3-hydro-1H-indol-2-one] | –
26 | – | 196 | O=C1CCc2ccc(OCc3cccc(OCc4ncc5ccccc5n4)c3)cc2N1 [Example 34, 7-[3-(2-quinazolinylmethoxy)benzyloxy]-1,2,3,4-tetrahydroquinolin-2-one] | Kd (H1 receptor): 100000 nM
27 | – | 148 | O=C1CCCc2cc(OCc3cccc(OCc4ccc5ccccc5n4)c3)ccc2N1 [Example 9, 7-[3-(2-Quinolinylmethoxy)benzyloxy]-2,3,4,5-tetrahydrobenz[b]azepin-2-one] | Kd (H1 receptor): 47600 nM
28 | 38 | 139 | Cc1ccc(OCc2ccc(OCc3ccc4ccccc4n3)cc2)c2c1NC(=O)C2(C)C [Example 27, 4-[4-(2-Quniolinylmethoxy)benzyloxy]-3,3,7-trimethyl-2,3-dihydydro-1H-indol-2-one] | –
29 | – | 135 | Cn1c(COc2cccc(COc3ccc4c(c3)SCC(=O)N4)c2)nc2ccccc21 [Example 36, 7-(3-(N-methylbenzimidazo1-2-yl-methoxy)benzyloxy]-3,4-dihydro-2H-1,4-benzothiazin-3-one] | Kd (H1 receptor): 16200 nM
30 | – | 129 | O=C1CCCc2cc(OCc3ccc(OCc4ccc5ccccc5n4)cc3)ccc2N1 [Example 25, 7-[4-(2-Quinolinylmethoxy)benzyloxy]-2,3,4,5-tetrahydro-1H-benzo[b]azepin-2-one] | Kd (H1 receptor): 57800 nM
31 | 43 | 109 | O=C1CSc2cc(OCc3cccc(OCc4ccc5ccc(Cl)cc5n4)c3)ccc2N1 [Example 32, 7-[3-(7-chloro-2-quinolinylmethoxy)benzyloxy]-3,4-dihydro-2H-1,4-benzothiazin-3-one] | –
32 | – | 46.2 | O=C1CSc2cc(NC(=O)c3cccc(OCc4ccc5ccccc5n4)c3)ccc2N1 [Example 72, 7-[3-(2-Quinolinylmethoxy)benzoylamino]-3,4-dihydro-2H-1,4-benzothiazin-3-one] | –
33 | 47 | 22 | O=C1CCSc2cc(OCc3cccc(OCc4ccc5ccccc5n4)c3)ccc2N1 [Example 11, 8-[3-(2-Quinolinylmethoxy)benzyloxy]-2,3,4,5-tetrahydro-1,5-benzothiazepin-4-one] | –
34 | – | 13 | O=C1CSc2cc(OCc3cccc(/C=C/c4ccc5ccc(Cl)cc5n4)c3)ccc2N1 [Example 81, trans-7-[3-[2-(7-chloroquinolin-2-yl)ethenyl]benzyloxy]-2H-3,4-dihydro-1,4-benzothiazin-3-one] | –
